Several values for one entry are separate records, joined by “and”; a condition that tells them apart may be missing. Identical values can stand only once.
Tests used:
[1] = test system: 5×FAD mice; test: ThioS Aβ plaque area and plaque morphometry (Supplementary Fig 8b,c); type: in vivo, mouse
Experimental: Thioflavin S (Sigma-Aldrich) staining was carried out according to previously described procedures. We used 6E10 (mouse, 1:100, Signet, SIG39300), anti-20G10 (mouse, 1:1000, provided by D. R. Howlett, GlaxoSmithKline, Harlow, Essex, UK) for Aβ42, anti-G30 (rabbit, 1:1000, provided by D. R. Howlett) for Aβ40, SMA (mouse, 1:400, Sigma-Aldrich, A2547), AT8 (mouse, 1:500, Thermo Fisher Scientific, MN1020), Caspase-3 (mouse, 1:200, Novus Biologicals, NB100-56708), ac-S565 (rabbit, 1:100), COX2 (mouse, 1:250, Thermo Fisher Scientific, 35-8200), Iba1 (rabbit, 1:500, Wako, 019-19941 and goat, Abcam, ab5076), NeuN (mouse, 1:500, Millipore, MAB177), GFAP (rabbit, 1:500, Dako, N1506 and chicken, 1:500, Abcam, ab4674), and Lamp1 (mouse, 1:200, Abcam, ab24170). The sections were analyzed with a laser-scanning confocal microscope (FV3000; Olympus) or with a BX51 microscope (Olympus). MetaMorph software (Molecular Devices) was used to quantification. Three-dimensional reconstruction of microglia was recorded and analyzed using IMARIS software (Bitplane)[11]. For the analysis of age-dependent microglial COX2^+ CX3CR1^+ cells in WT and APP/PS1 mice, COX2 (rabbit, 1:100, Abcam, ab15191) and CX3CR1 (mouse, 1:100, BioLegend, 149008) antibody were used and the images were acquired on Alexa 488 and APC Channel with performed using Operetta CLS and Analysis Software 4.5 (Perkin-Elmer).
Transgenic mouse lines over-expressing the hAPP695swe (APP) and presenilin-1M146V (PS1) mutations were originated from GlaxoSmithKline (Harlow, UK)[32] and maintained as described previously. We purchased 5×FAD mice from Jackson Labs (Stock number. 34840-JAX). Because APP/PS1 and 5xFAD mice show sex differences in disease progression, we used only male mice. To examine possible therapeutic effect of N-AS and aspirin in APP/PS1 mice, the N-AS (30 mg kg^−1, Sigma-Aldrich, 01912) was injected daily s.c. for 8 weeks to 7-months-old APP/PS1 mice until the age of 9 months, and aspirin (2 mg kg^−1, Sigma-Aldrich, A5376)[33] was administrated orally to 7-months-old APP/PS1 mice for 8 weeks. Also, to confirm possible therapeutic efficacy of N-AS in 5×FAD, the N-AS (30 mg kg^−1, Sigma-Aldrich, 01912) was injected daily s.c. for 4 weeks to 3-months-old 5×FAD mice until the age of 4 months. Block randomization method was used to allocate the animals to experimental groups. To eliminate the bias, we were blinded in experimental progress such as data collection and data analysis. Mice were housed at temperature of 22 °C and a 12 h day/12 h night cycle with free access to tap water and food pellets. All protocols were approved by the Kyungpook National University Institutional Animal Care and Use Committee.

[2] = target: T1, COX2 S565A (Homo sapiens, UniProt P35354, S565A); test: filter binding assay of [14C] N-AS to COX2; settings: 0.2 uM, replicates
T1 construct: His (N); made in house
T1 sequence (P35354 18-604 S565A): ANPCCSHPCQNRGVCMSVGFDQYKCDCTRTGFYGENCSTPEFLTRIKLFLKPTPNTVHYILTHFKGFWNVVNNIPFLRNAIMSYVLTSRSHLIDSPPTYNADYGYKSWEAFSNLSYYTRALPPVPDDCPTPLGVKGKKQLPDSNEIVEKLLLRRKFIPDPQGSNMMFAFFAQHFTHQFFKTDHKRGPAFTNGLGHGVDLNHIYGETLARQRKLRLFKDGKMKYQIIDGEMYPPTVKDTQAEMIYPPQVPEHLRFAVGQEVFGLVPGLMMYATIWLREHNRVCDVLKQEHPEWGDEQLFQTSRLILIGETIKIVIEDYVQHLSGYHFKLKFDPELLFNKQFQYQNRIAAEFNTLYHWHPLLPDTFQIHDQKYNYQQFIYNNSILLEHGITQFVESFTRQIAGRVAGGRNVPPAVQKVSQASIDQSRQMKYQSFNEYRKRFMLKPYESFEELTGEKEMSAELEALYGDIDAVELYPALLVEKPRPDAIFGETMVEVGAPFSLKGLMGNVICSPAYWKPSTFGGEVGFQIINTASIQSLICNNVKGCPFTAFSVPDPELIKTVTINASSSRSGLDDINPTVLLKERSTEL

SMILES: CCCCCCCCCCCCC/C=C/[C@@H](O)[C@H](CO)NC(C)=O [N-AS, N-((2S,3R,E)-1,3-Dihydroxyoctadec-4-en-2-yl)acetamide]
- Aβ plaques by size, <25mM ([1]; 5xFAD + N-AS, sFig 8c): 92.2364 and 92.245 and 94.982 and 89.4908 and 95.585 and 93.6135
- Aβ plaques by size, >50mM ([1]; 5xFAD + N-AS, sFig 8c): 5.395 and 4.6761 and 5.546 and 5.244 and 3.581 and 5.111
- Aβ plaques by size, 25-50mM ([1]; 5xFAD + N-AS, sFig 8c, in % (unit assumed)): 5.341 and 4.808 and 4.956 and 5.7255 and 3.9859 and 4.882
- Aβ plaque deposit and Aβ plaque phagocytosis ([1]; 5×FAD, N-AS 30 mg kg^-1 daily s.c. 4 weeks): similarly improved AD pathology of 5×FAD mice
- binding velocity (Vbinding) [2]: 0.187 nM/min and 0.075 nM/min and 0.292 nM/min
